In general, Kd refers to the equilibrium constant for the complex coming apart. High values mean a looser complex, low ones a tighter complex. The term IC50 denotes the concentration needed to halve the response being measured.

One test deals with human PDHK2 (12-407) (Homo sapiens (Human), UniProt Q15119). The test is described as follows: Isothermal titration calorimetry (ITC) binding. Conditions: 30° C., pH 7.5. On the procedure:
Isothermal Titration Calorimetry
ITC measurements were performed with a VP-ITC micro calorimeter (Microcal, LLC/GE Healthcare Bio-Sciences AB, Uppsala, Sweden). In general titrations were performed by titrating the protein (50 μM) to the test compound (5 μM) in 12 μl injections. All binding experiments were carried out at 30° C. In general the test compounds were diluted form DMSO stock solutions into the measurement buffer with a maximum final concentration of 1% DMSO. The measurement buffer was 20 mM HEPES, 135 mM KCl, 1 mM TCEP, 2 mM MgCl2, 15 mM NaH2PO4, pH 7.5. The human PDHK2 (12-407) was produced in E. coli as his-tagged protein and purified by affinity chromatography. The tag was removed by side specific proteolysis. Before titration the protein buffer was changed to the measurement buffer containing the same DMSO concentration as the test compound dilution. ITC data analysis was performed using Origin 7 calorimetry software from the same supplier. For most measurements a binding model of one binding site was assumed. According to the applied mathematical model it is possible to calculate the binding constant (KA), the observed binding enthalpy (ΔH^obs) as well as the stoichiometry (N) of the formed complex. Preceding analysis the raw data was corrected for the heats of dilution by extrapolating from the saturation value from the end of titration. In order to allow for direct comparison between the respective experimental series and protein preparations the protein concentration was corrected by referencing titrations to a well behaved standard inhibitor. The apparent stoichiometry values defined the fraction of binding competent protein and compensated for relative errors in protein concentration measurements. This corrected protein concentration was used to set up ITC experiment series with test compounds. Any deviations from ideal 1:1 stoichiometry observed here were attributed to errors in compound concentration. This nominal compound concentration was corrected as well to achieve 1:1 stoichiometry in the fit.

A further test has as its target PDHK2 (Homo sapiens (Human), UniProt Q15119). The test is described as follows: Biochemical activity testing of PDHK2: PDC inactivation assay. Conditions: human rec PDHK2, PDC from porcine heart, ATP 5 μM; read-out: IC50 PDHK2 (enzyme assay). An excerpt: Biochemical Activity Testing of PDHK2: PDC Inactivation Assay
The biochemical activity assay for PDHK2 is based on the inactivation of PDC through phosphorylation by PDHK2. The assay is run in two steps: the enzymatic PDHK2 reaction in which isolated PDC is phosphorylated by PDHK2 with ATP as co-substrate and the PDC activity assay in which pyruvate and NAD are converted to acetyl-CoA and NADH. The PDC activity correlates to the increase in NADH and thereby is detectable directly via the increasing fluorescence signal (Exc 340 nm, Em 450 nm). Inhibition of PDHK2 results in a lower phosphorylation status and thereby a less decrease in activity of PDC and a stronger increase in NADH fluorescence signal.
The PDC inactivation assay is performed in Greiner 384-well microtiter plates and is used for high throughput screen. 4 μl of PDHK2 (human, rec, Carna Bioscience, 10 ng/μl-137 nM final concentration) and PDC (isolated from porcine heart, Sigma-Aldrich, 20 mU/ml final concentration) are incubated in the absence or presence of the test compound (10 dilution concentrations) for 30 min at room temperature in kinase buffer (15 mM potassium phosphate buffer, pH 7.0, 60 mM KCl, 1.5 mM DTT, 2.5 mM MgCl2, 0.0125% (w/v) BSA, 0.125% Pluronic F-68). The kinase reaction is started by the addition of 4 μl ATP substrate solution (fc 5 μM in kinase buffer). After 30 min incubation at 37° C. 40 μl of PDC reaction solution (100 mM Tris/HCl, pH 7.8, 0.5 mM EDTA, 1 mM MgCl2, 50 mM NaF, 0.25 mM Coenzyme A, 5 mM pyruvate, 1 mM NAD, 5 mM DTT, 1 mM thiamine pyrophosphate) is added. The first fluorescence measurement is performed on a Perkin Elmer Envision (Exc 340 nm, Em 450 nm). The reaction is incubated for 45 min at room temperature. Afterwards a second fluorescence measurement is performed and the PDC activity is calculated by the difference between both measurements. As full value for the PDHK2 assay the inhibitor-free PDHK2 reaction is used. The pharmacological zero value used is DCA (Sigma-Aldrich) in a final concentration of 3 mM. The inhibitory values (IC50) were determined using either the program Symyx Assay Explorer® or Condosseo® from GeneData.

Test [1] relates to PDH-E1alpha (pSer300) in HEK293T cells. Put plainly: Cellular immunofluorescence assay, PDH-E1alpha (pSer300). In kind it is cell-based. The note with it: Homo sapiens, HEK-293T, 5 hours incubation, read-out: IC50 (cell data). The procedure:
Cellular Assay for Determination of Compound Activities
Compound activities were determined in a cellular immunofluorescence assay. Human HEK293T cells were seeded into black 384-well plates with clear bottom and grown overnight.
Next day, test compounds were added to the wells and the plates incubated for 5 hours. Following this, cells were fixed with formaldehyde, permeabilised and blocked. The primary antibody, Anti-PDH-E1alpha (pSer300), AP1064 (Merck Millipore) was added and incubated overnight in the plate wells. Next, cells were washed and the seconday antibody, Alexa Fluor 488, goat anti-rabbit ab (A-11008, Invitrogen) was added together with Hoechst 33258 (H3569, Invitrogen) and incubated for 1 hour in the plate wells. Finally, cells were washed and the plates were measured on the laser scanning cytometer acumen hci (TTpLabtech).
The raw data were normalized against a pharmacological inhibitor control and dose response curves were generated by plotting the percent effect values using the software package Genedata screener (Genedata).

As for `CC(C)(c1nnc(C2CCCCC2)o1)C1CCN(C(=O)[C@@](C)(O)C(F)(F)F)CC1` [Compound A10, (R)-1-{4-[1-(5-Cyclohexyl-[1,3,4]oxadiazol-2-yl)-1-methyl-ethyl]-piperidin-1-yl}-3,3,3-trifluoro-2-hydroxy-2-methyl-propan-1-one], the dissociation constant (Kd) on human PDHK2 (12-407) stood at 120 nM. The concentration for half-maximal inhibition (IC50) was determined as 400 nM on PDHK2 and 2000 nM in test [1].

In the case of `COc1ccc(-c2nnc(C3([C@@H]4CCN(C(=O)[C@@](C)(O)C(F)(F)F)C[C@@H]4C)CC3)[nH]2)cc1` [Compound A27, (R)-3,3,3-Trifluoro-2-hydroxy-1-((3R,4R)-4-{1-[5-(4-methoxy-phenyl)-4H-[1,2,4]triazol-3-yl]-cyclopropyl}-3-methyl-piperidin-1-yl)-2-methyl-propan-1-one], the IC50 at PDHK2 turned out to be 13000 nM.

In turn, `CC1CN(C(=O)[C@@](C)(O)C(F)(F)F)CCC1C1(c2nnc(-c3ccccc3)[nH]2)CC1` (stereo partly drawn) [Compound A11, (R)-3,3,3-Trifluoro-2-hydroxy-2-methyl-1-{3-methyl-4-[1-(5-phenyl-1H-[1,2,4]triazol-3-yl)-cyclopropyl]-piperidin-1-yl}-propan-1-one] came in with a dissociation constant (Kd) on human PDHK2 (12-407) of 8.3 nM. For the same molecule, the 50% inhibitory concentration (IC50) on PDHK2 is 370 nM; in test [1], 120 nM.

The molecule `C[C@@](O)(C(=O)N1CCC(C2(c3nnc(-c4ccccc4)o3)CC2)CC1)C(F)(F)F` [Compound A5, (R)-3,3,3-Trifluoro-2-hydroxy-2-methyl-1-{4-[1-(5-phenyl-[1,3,4]oxadiazol-2-yl)-cyclopropyl]-piperidin-1-yl}-propan-1-one] returned a dissociation constant Kd at human PDHK2 (12-407) of 200 nM. Also, the IC50 on PDHK2 was determined as 440 nM; in test [1], 1500 nM.

For `CC(C)(c1nnc(-c2ccccc2)o1)C1CCN(C(=O)[C@@](C)(O)C(F)(F)F)CC1` [Compound A9, (R)-3,3,3-Trifluoro-2-hydroxy-2-methyl-1-{4-[1-methyl-1-(5-phenyl-[1,3,4]oxadiazol-2-yl)-ethyl]-piperidin-1-yl}-propan-1-one], on human PDHK2 (12-407), the Kd was found to be 50 nM. Also, the values for the concentration for half-maximal inhibition (IC50) (on PDHK2; in test [1]) were 720 nM and 650 nM, respectively.

On to `Cc1ccc(-c2nnc(C3([C@@H]4CCN(C(=O)[C@@](C)(O)C(F)(F)F)C[C@@H]4C)CC3)[nH]2)cc1` [Compound A21, (R)-3,3,3-Trifluoro-2-hydroxy-2-methyl-1-{(3R,4R)-3-methyl-4-[1-(5-p-tolyl-4H-[1,2,4]triazol-3-yl)-cyclopropyl]-piperidin-1-yl}-propan-1-one], for which the IC50 at PDHK2 is 4900 nM.

`Cc1ccc(-c2nnc(C3([C@@H]4CCN(C(=O)[C@@](C)(O)C(F)(F)F)C[C@@H]4C)CC3)o2)cc1` [Compound A24, (R)-3,3,3-Trifluoro-2-hydroxy-2-methyl-1-{(3R,4R)-3-methyl-4-[1-(5-p-tolyl-[1,3,4]oxadiazol-2-yl)-cyclopropyl]-piperidin-1-yl}-propan-1-one]: on PDHK2, the IC50 was determined as 7300 nM.

In turn, `C[C@@H]1CN(C(=O)[C@@](C)(O)C(F)(F)F)CC[C@@H]1C1(c2nnc(-c3ccc(Cl)cc3)o2)CC1` [Compound A37, (R)-1-((3S,4S)-4-{1-[5-(4-Chloro-phenyl)-[1,3,4]oxadiazol-2-yl]-cyclopropyl}-3-methyl-piperidin-1-yl)-3,3,3-trifluoro-2-hydroxy-2-methyl-propan-1-one] gave an equilibrium dissociation constant (Kd) on human PDHK2 (12-407) of 2.4 nM. Further, the IC50 worked out at 130 nM on PDHK2 and 25 nM in test [1].

As to `COc1ccc(-c2nnc(C3([C@@H]4CCN(C(=O)[C@@](C)(O)C(F)(F)F)C[C@@H]4C)CC3)o2)cc1` [Compound A30, (R)-3,3,3-Trifluoro-2-hydroxy-1-((3R,4R)-4-{1-[5-(4-methoxy-phenyl)-[1,3,4]oxadiazol-2-yl]-cyclopropyl}-3-methyl-piperidin-1-yl)-2-methyl-propan-1-one], the IC50 at PDHK2 worked out at 1900 nM.

Turning to `C[C@H]1CN(C(=O)[C@@](C)(O)C(F)(F)F)CC[C@H]1C1(c2nnc(-c3ccccc3)o2)CC1` (stereo in doubt) [Compound A15, (R)-3,3,3-Trifluoro-2-hydroxy-2-methyl-1-{(S)-3-methyl-4-[1-(5-phenyl-[1,3,4]oxadiazol-2-yl)-cyclopropyl]-piperidin-1-yl}-propan-1-one], the 50% inhibitory concentration (IC50) on PDHK2 was found to be 11000 nM; in test [1], 7300 nM.

On human PDHK2 (12-407), `C[C@@](O)(C(=O)N1CCC(C2(c3nnc(-c4ccc(F)cc4)[nH]3)CC2)CC1)C(F)(F)F` [Compound A2, (R)-3,3,3-Trifluoro-1-{4-{1-[5-(4-fluorophenyl)-4H-[1,2,4]triazol-3-yl]-cyclopropyl}-piperidin-1-yl}-2-hydroxy-2-methyl-propan-1-one] gave a dissociation constant (Kd) of 180 nM. Moreover, in test [1], the half-maximal inhibitory concentration (IC50) is 2000 nM.

With `C[C@H]1CN(C(=O)[C@@](C)(O)C(F)(F)F)CC[C@H]1C1(c2nnc(-c3ccc(Cl)cc3)[nH]2)CC1` [Compound A33, (R)-1-((3R,4R)-4-{1-[5-(4-Chloro-phenyl)-4H-[1,2,4]triazol-3-yl]-cyclopropyl}-3-methyl-piperidin-1-yl)-3,3,3-trifluoro-2-hydroxy-2-methyl-propan-1-one], on PDHK2, the 50% inhibitory concentration (IC50) is 18000 nM.

For the molecule `COc1ccc(-c2nnc(C3([C@@H]4CCN(C(=O)[C@@](C)(O)C(F)(F)F)C[C@@H]4C)CC3)[nH]2)cn1` [Compound A39, (R)-3,3,3-Trifluoro-2-hydroxy-1-((3R,4R)-4-{1-[5-(6-methoxy-pyridin-3-yl)-4H-[1,2,4]triazol-3-yl]-cyclopropyl}-3-methyl-piperidin-1-yl)-2-methyl-propan-1-one], the 50% inhibitory concentration (IC50) on PDHK2 is 6000 nM.

With `C[C@H]1CN(C(=O)[C@@](C)(O)C(F)(F)F)CC[C@H]1C1(c2nnc(-c3ccccc3)[nH]2)CC1` [Compound A13, (R)-3,3,3-Trifluoro-2-hydroxy-2-methyl-1-{(3R,4R)-3-methyl-4-[1-(5-phenyl-4H-[1,2,4]triazol-3-yl)-cyclopropyl]-piperidin-1-yl}-propan-1-one], the half-maximal inhibitory concentration (IC50) on PDHK2 came to 6600 nM.

Regarding `C[C@H]1CN(C(=O)[C@@](C)(O)C(F)(F)F)CC[C@H]1C1(c2nnc(-c3ccc(F)cc3)[nH]2)CC1` [Compound A18, (R)-3,3,3-Trifluoro-1-((3R,4R)-4-{1-[5-(4-fluoro-phenyl)-4H-[1,2,4]triazol-3-yl]-cyclopropyl}-3-methyl-piperidin-1-yl)-2-hydroxy-2-methyl-propan-1-one], the IC50 at PDHK2 stood at 2600 nM.

For `C[C@H]1CN(C(=O)[C@@](C)(O)C(F)(F)F)CC[C@H]1C1(c2nnc(-c3ccc(Cl)cc3)o2)CC1` [Compound A36, (R)-1-((3R,4R)-4-{1-[5-(4-Chloro-phenyl)-[1,3,4]oxadiazol-2-yl]-cyclopropyl}-3-methyl-piperidin-1-yl)-3,3,3-trifluoro-2-hydroxy-2-methyl-propan-1-one], the IC50 on PDHK2 was 8200 nM.

For the origin of these results see US11026936B2, “Piperidinyl-propanone derivatives” (Merck Patent GmbH, priority 2016, dated 2021).
